Laboratory results from a melting point compilation (Tetko et al.; mined from patent text by program, amines drawn as free bases though some values may be those of a salt).

SMILES | melting point
CC(=O)N(C1=C(Cl)C(=O)c2c(cnn2C)C1=O)C1CC1 | 171 °C
CC(C)c1ccc(/C=C/c2cc(/C=C/c3ccc4cc[nH]c4c3)n[nH]2)cc1 | 208 to 212 °C
CCCCCCCCCCCCCCCCN(C(=O)C(F)(F)F)c1ccc(C(=O)Nc2ccc(C(=O)OCC)cc2)cc1 | 91 to 93 °C
C=CCN(c1nc(N2CCN(C(=O)n3ccnc3)CC2)nc(N(CC=C)C2CCCCC2)n1)C1CCCCC1 | 132 to 135 °C
CC(=O)c1cccc(NC(=O)C=C(C)Cl)c1 | 152 °C
O=C(Nc1ccc(OC(F)(F)F)cc1)NC1CCN(C(=O)C2CC2)CC1 | 195 to 196 °C
CC(C)(C)Cc1ccc(C#N)c(=O)[nH]1 | 211 to 212 °C
CCOCc1nc2c(N)nc(C)c(C)c2n1CC1(O)CCC1 | 190 to 191 °C
CC(C)Nc1cc(Cl)nc(Cl)n1 | 69 to 70 °C
NS(=O)(=O)c1ccc(CCCCCO)s1 | 65 to 67 °C
CC(=NOCCOc1ccc(CC2SC(=O)N(C(c3ccccc3)(c3ccccc3)c3ccccc3)C2=O)cc1)c1ccc(N(C)S(=O)(=O)c2ccccc2)cc1 (stereo unspecified) | 143 to 145 °C
COc1ccc(CCNC(=O)C(=O)NCc2ccc([N+](=O)[O-])cc2)cc1OC1CCCC1 | 148 to 150 °C
CSc1nn(-c2c(Cl)cc(C(F)(F)F)cc2Cl)c(N)c1S(=O)(=O)c1cccc(C(F)(F)F)c1 | 201 to 203 °C
COc1cc(C(C)=O)ccc1OCCCN1C2CCC1CC(c1n[nH]c3cc(F)ccc13)C2 (stereo unspecified) | 157 to 158 °C
O=Cc1c(Br)n(C2OC(CO)C(O)C2O)c2cc(Cl)c(Cl)cc12 (stereo unspecified) | 210 to 211 °C
Cc1ccc(S(=O)(=O)n2cc3c(c2)SC(=C2SC(SCCc4ccc([N+](=O)[O-])cc4)=C(SCCc4ccc([N+](=O)[O-])cc4)S2)S3)cc1 | 143 to 144 °C
CCOc1nn(CCOc2nn(CC)cc2CC(=O)O)cc1C(=O)NCc1ccc(Cl)cc1Cl | 157 to 158 °C
CC12CCCCC1(O)CCC1C2CCC2(C)C1CC13OCCOC12OCCO3 (stereo unspecified) | 160 to 162 °C
CONC(=O)C(Cl)=Cc1cc(-n2c(=O)cc(C(F)(F)F)n(C)c2=O)ccc1Cl | 136 to 141 °C
CCCCCCCCCCCCCCCCS(=O)(=O)OC1CNC1 | 91 to 97 °C
OCC#CCCCCCCC#Cc1ccc(O)c(O)c1 | 81 to 83 °C

SMILES | melting point
O=C1NC(=S)SC1=Cc1ccc2c(c1)N(CCc1ccc(F)c(F)c1)C(=O)CO2 | 263 to 266 °C
COc1cc(Br)nc2[nH]cc(C(C)=O)c12 | > 210 °C
CCCCC(O)CNCCCCCCCCCCNCC(O)CCCC (stereo unspecified) | 127 to 137 °C
COC(=O)[C@@H]1C[C@H](OC(=O)C(C)C)C(=O)[C@H]2[C@@]1(C)CC[C@H]1C(=O)O[C@H](c3ccoc3)C[C@]21C | 155 to 157 °C
CCOC=Nc1noc(-c2cc(C(C)(C)C)c(O)c(C(C)(C)C)c2)n1 | 159 to 161 °C
CC(C)OC(=O)c1cc(-n2c(=O)c3c(n(C)c2=O)OCC3)c(F)cc1Cl | 170 to 173 °C
CON(C)C(=O)[C@H]1CC[C@H](NC(=O)OC(C)(C)C)CC1 | 130 to 140 °C
COc1ccc(-n2c(=O)[nH]c3cc(Cl)cc(Cl)c3c2=O)cc1 | 294 to 296 °C
C[Si](C)(C)C#Cc1c(C(F)(F)F)nn(-c2c(Cl)cc(C(F)(F)F)cc2Cl)c1N | 120 to 123 °C
CCOC(=O)C(C)=Cc1cc(F)c(F)c(F)c1 | 54 °C
CCOc1cc(Br)ccc1C=NNC(=N)NN=Cc1ccc(Br)cc1OCC | 195 to 197 °C
CNC(=C[N+](=O)[O-])NCc1ccc(Cl)nc1Cl | 211 to 213 °C
Cc1nc(O)c(F)c(Cl)n1 | 214 to 216 °C
C#CCSc1ccncc1 | 55 to 56 °C
CCCn1cc2c(C3C(=O)Nc4ccc(S(=O)(=O)N(C)C)cc43)nc(Cl)nc2n1 (stereo unspecified) | > 300 °C
CC1(C)CC(=S)Nc2ccc(-c3cccc(Cl)c3)cc21 | 197 to 198 °C
CC(C)Oc1cc(N2NC(C)(C)NC2=O)c(Cl)cc1Cl | 162 to 163 °C
CCCCc1oc2ccc(C#N)cc2c1C(=O)c1ccc(OCCCN(CCCC)CCCC)cc1 | 85 to 87 °C
CNC(=S)C1=CC(C)(C)Oc2ccc([N+](=O)[O-])cc21 | 147 to 148 °C
OCC1C2OCC(O2)C(OCc2ccccc2)C1O (stereo unspecified) | 111 to 113 °C
O=S(=O)(c1c(-c2ccc(Cl)cc2)[nH]c(Br)c1Br)C(F)(F)C(F)F | 138 to 141 °C

Other lines, results leading:

melting point | SMILES
186 to 187 °C | N#CCCNC(=O)c1cccc(-c2ccc3ccn(Cc4ccc(Cl)cc4Cl)c3n2)c1
106 to 110 °C | CCOC(=O)C(c1c[nH]c2cccc(C(=O)OC)c12)C(C)[N+](=O)[O-] (stereo unspecified)
111 °C | c1ccc(C(c2ccc3cccnc3c2)n2ccnc2)cc1 (stereo unspecified)
118 °C | O=C(O)c1ccc(OCCNC(=O)C2Cc3ccccc3N2S(=O)(=O)c2ccc(-c3ccc(F)cc3)cc2)c(F)c1 (stereo unspecified)
61 to 62 °C | CCCCN(C)c1c(-c2ccc(OC)cc2)sc2ccccc12
285 to 287 °C | O=C(O)c1ccc(C(=O)NS(=O)(=O)c2ccc(Cl)cc2)cc1
105 to 108 °C | OC1(Cc2nc[nH]n2)CCCc2ccccc21 (stereo unspecified)
281 to 284 °C | Nc1nc2cc(-c3cccc(C(=O)N4CCCC4)c3)ccc2c2c1nc(CO)n2CC1CCOCC1
98 °C | Clc1ccccc1Cn1ncnc1I
100 to 102 °C | O=[N+]([O-])c1ccccc1SN1CCN(C2CC2)CC1
160 to 161 °C | COc1ccc(NC(=S)NCCCn2ccnc2)cc1OC
217 °C | Cc1cc(-c2cc(C(F)F)n3ncc(C(=O)O)c3n2)ccc1C(F)(F)F
79 to 81 °C | CCOC(=O)CC(O)c1ccc(-c2ccc([N+](=O)[O-])cc2)o1 (stereo unspecified)
119 to 120 °C | Cc1oc(-c2ccccc2)nc1CCOc1ccc(C#N)cc1
172 to 174 °C | CC(=O)NC(C(=O)NCc1cccnc1)c1ccco1 (stereo unspecified)
138 to 144 °C | CC(C)c1noc(-c2c(Cl)ccc(C(=O)c3cnn(C)c3O)c2Cl)n1
107 to 108 °C | CCCc1nnc(/C=C/c2cc(OCc3ccc(OCc4nc(-c5ccco5)oc4C)c(OC)c3)nn2-c2ccccc2)o1
102 to 104 °C | COC(=O)c1cc(C(=O)OC)c(NCCCc2ccccc2)cn1
236 to 238 °C | Cn1cc(-c2nc3c(N[C@H]4[C@@H](C(N)=O)[C@@H]5C=C[C@H]4C5)ccnc3[nH]2)cn1
79 to 80 °C | CC(C)(C)[Si](n1cc(Br)c2ncccc21)(C(C)(C)C)C(C)(C)C

melting point | SMILES
93 °C | CC1(C)COc2cc(F)c(F)cc2C(O)(c2ccccn2)C1 (stereo unspecified)
80 to 81 °C | CC(=O)NCc1ccc(CN2CCN(c3cccc(C)c3)CC2)cc1
144 to 145 °C | CNc1nc(-c2ccco2)c2ncn(Cc3ccc(OC)cc3)c2n1
318 °C | O=C1c2ccccc2C(=O)c2c1oc1ccc3cc(O)ccc3c21
105 to 109 °C | BrCC=C(c1ccc(I)cc1)c1ccc(I)cc1
233 to 235 °C | CCOC(=O)c1ccc(Cc2nc3n(-c4c(Cl)cc(Cl)cc4Cl)[nH]c(C(C)C)c-3c(=O)n2)cc1
199 to 201 °C | CNc1ccccc1C(=O)Cc1nnn[nH]1
119 to 120 °C | CC(=O)c1ccc(OCCOc2ccc3ccccc3c2)cc1Cl
180 to 183 °C | Cc1ccn2c(C(=O)O)c(C)nc2c1
81 to 82 °C | COc1ccc(N=C(C)c2ccccc2)cc1
187 °C | CC#CCOc1ccc(S(=O)(=O)C(C(=O)NO)c2ccc(Br)cc2)cc1 (stereo unspecified)
219 to 223 °C | N#Cc1cc(-c2ccncc2)cnc1Cl
201 to 202 °C | CSc1ccc(CC(=O)NC(NC(Cc2ccccc2C)=NC#N)C(C)(C)C)cc1 (stereo unspecified)
75 °C | COC(=O)c1ccc(SCc2c(O[C@H](Cn3ccnc3)c3ccccc3)ccc3c2CCCC3=O)cc1
169 to 170 °C | COc1cc(Oc2ccc(S(C)(=O)=O)cc2)cc2cc(C3=NCC(CC(N)=O)S3)[nH]c12 (stereo unspecified)
129 to 130 °C | COC1=CC(=O)N(CC(=O)OCc2ccccc2)C1
177 to 179 °C | c1ccc(C2CCNC3=NCCCN32)cc1 (stereo unspecified)
> 340 °C | NC(=O)c1ccccc1-n1nnc2cccnc21
206 to 208 °C | FC(F)(F)c1cc2[nH]c(N3CCN(c4ncccc4C(F)(F)F)CC3)nc2cc1Cl
246 °C | N#Cc1cn(-c2cccc(F)c2)c(=O)[nH]c1=O

melting point | SMILES
294 °C | CCc1ccc(-c2[nH]nc3c2C(=O)c2c(NC(C)=O)cccc2-3)cc1
90.5 °C | O=C(c1ccc(Cl)c([N+](=O)[O-])c1)c1ccc(F)cc1F
75 to 78 °C | COc1ccc(CCN(C)CCC2CN(C)C(=S)c3cccnc3O2)cc1 (stereo unspecified)
45 to 48 °C | O=C1N(CCc2noc(C(F)(F)F)n2)c2ccccc2C12COc1cc3c(cc12)OCO3 (stereo unspecified)
254 to 255 °C | COC(=O)c1coc(-c2ncn3c2CN(C)C(=O)c2sccc2-3)n1
143 to 145 °C | CCNC(=O)c1cc(N)ccc1[Si](C)(C)C
103 to 105 °C | CC(=O)c1ccc(-c2ccc(Cl)cc2)c([N+](=O)[O-])c1
132 to 133 °C | O=c1c(-c2ccccc2)c[nH]n1-c1ccccn1
51 to 52 °C | COCOCc1nc(-c2ccccc2)oc1C=O
149 to 150 °C | CCOC(=O)Nc1ccc(OCc2nc3ccccc3s2)cc1
219 to 222 °C | CNc1nc(-c2ccc(F)cc2)n(-c2ccc(SC)cc2)c(=O)c1C#N
143 °C | COc1ccc(CS[C@@H]2C[C@@H](CN=[N+]=[N-])N(S(=O)(=O)c3ccc4ccccc4c3)C2)cc1
148 to 150 °C | CC(=O)Oc1cccc(-c2nc(=O)n(C(C)C)c3cc(C)ccc23)c1
> 280 °C | CSc1nn2c(N)ncnc2c1S(=O)(=O)c1ccccc1
98 to 99 °C | CCS(=O)c1nnc2n1C=Cc1ccccc1C2 (stereo unspecified)
228 °C | COc1ccc(C(=O)NCc2ccccc2)c2c1oc1ccc(N)cc12
260 to 262 °C | Nc1nccc2[nH]cnc12
215 to 217 °C | Cc1ccccc1-c1cn2c(n1)-c1ccccc1Nc1ncccc1-2
141 to 142 °C | CC(=O)SCC(Cc1ccccc1)C(=O)Nc1ccc(C(=O)O)c(O)c1 (stereo unspecified)
